{
  "source": "patent US11090292B2",
  "about": "“Compositions and methods of use of an inappetance-controlling compound” (Aratana Therapeutics, Inc., priority 2012, dated 2021)",
  "key": {"IGF-1": {"tested_on": "IGF-1", "test": "Example 5: serum IGF-1", "format": "in vivo, Beagle dogs", "settings": "by Day 4, remained elevated on Day 7, Groups 2-4", "protocol": "In order to further refine the dosing regimen that would provide an appropriate blood profile of capromorelin and desired results from the perspective of increased food intake and weight gain, an additional series of experiments were conducted. In these experiments, twenty-four adult (male and female) Beagle dogs weighing approximately 9 to 13 kilograms were randomly divided into four groups. Group 1 received a placebo formulation, without any active compound, two times per day; Group 2 received a composition comprising 3 mg/kg of body weight of capromorelin one time per day; Group 3 received a composition comprising 4.5 mg/kg of body weight of capromorelin one time per day; and Group 4 received a composition comprising 3 mg/kg of body weight of capromorelin two times per day. […]\nIn these experiments, the animals were orally administered the flavored formulation at approximately 8:00 AM and, for Group 4 only, again at 6:00 PM. […] Food consumption was calculated and recorded on Days −7 through Day 7. Baseline food consumption was calculated for each individual dog as the average number of grams of food consumed on Days −3, −2, and −1. The study period food consumption was calculated for each individual dog as the average of Days 1 through 7. […]"}, "[1]": {"test": "Example 9 four-day cat dosing regimen study: food consumption and body weight", "format": "in vivo, cats", "settings": "for increase in body weight relative to baseline measurements: four days", "protocol": "A four-day study was performed to further assess the pharmacokinetics of formulation 8 from Example 3 (i.e., the most “well-accepted” formulation) in cats. Moreover, the administration of formulation 8 was also analyzed to determine if administration of this formulation could induce sustained production of IGF-1 and relatively depressed, mitigated, or lower levels of cortisol. The different capromorelin-dosing regimens were also assessed for the impact on food intake and changes in body mass.\nTwenty-four adult cats were divided into one of four treatment groups, with all four groups as active treatment groups. Each of the active treatment groups included 6 cats. The first group received a sterile injection of a capromorelin composition containing a 0.75 mg/kg concentration of capromorelin once per day during the four-day experiment. The second group received a once-daily sterile injection of a capromorelin composition at a concentration of 2 mg/kg. The third group received a once-daily dose of a capromorelin composition at a concentration of 2 mg/kg, via oral gavage. The fourth group received a once-daily dose of a capromorelin composition containing capromorelin at a concentration of 4 mg/kg, via oral gavage.\nDuring the seven day study period, on an at least once-daily basis, each of the cats was monitored for clinical observations, mortality, moribundity, body mass, acceptability/palatability, and food consumption. Serum samples were taken to measure capromorelin concentration, IGF-1 concentration, and cortisol concentration. Serum samples were taken on days 1 and 4 immediately prior to dosing (0 minutes) and 30, 60, 90, 120, 240, 360, and/or 480 minutes post dosing. Additional serum samples were taken at 8 AM on Day 7 of the study to assess long-term impact of the active treatments."}, "[2]": {"test": "Example 12 cat probe formulation study and pharmacokinetic analysis", "format": "in vivo, cats", "settings": "for peak in serum concentration of capromorelin / time post administration of peak serum concentration: Day 0", "protocol": "Similar to some of the other pharmacokinetic analyses conducted in dogs and cats, an additional pharmacokinetic study was conducted in cats to assess capromorelin formulations that allow sufficient drug to circulate to produce appetite stimulation and to define the capromorelin pharmacokinetic profile in cats. Briefly, twelve cats were randomized into Group 1 (six cats) and Group 2 (six cats). Group 1 received an intravenous formulation that included 0.75 mg/kg of capromorelin dissolved in sterile water and Group 2 received a previously tested formulation via oral gavage. Food consumption was determined daily for all cats. Specifically, animals were offered feed at approximately 11:00 AM, with the removal of feed at approximately 3:00 PM. Upon removal of feed, the amount consumed was calculated. […] Initially, the cats were given a seven day acclimation period to adjust to the experimental conditions and feed provided. After the acclimation period, on Day 0, all animals in Group 1 received an intravenous injection of the composition containing a dose of 0.75 mg/kg of capromorelin. On Day 0, the animals in Group 2 received an oral administration of the formulation via gavage at a dose of 3 mg/kg of capromorelin. On Day 0, serum samples were taken from the Group 1 animals at time 0 (pre-administration) and 5 minutes, 10 minutes, 30 minutes, 1 h, 2 h, 4 h, 6 h, 8 h, and 12 h post administration and serum samples were also taken from the Group 2 animals at time 0 (per-administration) and 15 minutes, 30 minutes, 45 minutes, 1 h, 2 h, 4 h, 6 h, 8 h, and 12 h post administration."}, "[3]": {"settings": "Group 1, intravenous 0.75 mg/kg"}},
  "note": "Like-named read-outs stand apart in the source and are kept apart here.",
  "data": [
    {"compound": "CN1N=C2CCN(C(=O)[C@@H](COCc3ccccc3)NC(=O)C(C)(C)N)C[C@@]2(Cc2ccccc2)C1=O.O=C(O)C(O)C(O)C(=O)O", "note": "[capromorelin]", "values": [
      {"measurement": "IGF-1 levels in treated animals", "setting": "IGF-1", "result": "sustained increase"},
      {"measurement": "increase in body weight relative to baseline measurements", "setting": "[1]; 0.75 mg/kg sterile injection once daily", "result": 1.33, "unit": "%"},
      {"measurement": "increase in body weight relative to baseline measurements", "setting": "[1]; 2 mg/kg oral once daily", "result": 0.70, "unit": "%"},
      {"measurement": "increase in body weight relative to baseline measurements", "setting": "[1]; 2 mg/kg sterile injection once daily", "result": 2.37, "unit": "%"},
      {"measurement": "increase in body weight relative to baseline measurements", "setting": "[1]; 4 mg/kg oral once daily", "result": 1.47, "unit": "%"},
      {"measurement": "food consumed relative to prior days of the experiment", "setting": "[1]; sterile injectable formulations (0.75, 2 mg/kg) or 4 mg/kg oral gavage, once daily", "result": "consumed more food on day 4"},
      {"measurement": "peak in serum concentration of capromorelin", "setting": "[2]; [3]", "result": "around 625 ng/mL"},
      {"measurement": "time post administration of peak serum concentration", "setting": "[2]; [3]", "result": "around 5 minutes"},
      {"measurement": "peak in serum concentration of capromorelin", "setting": "[2]; Group 2, oral gavage 3 mg/kg", "result": "around 150 ng/mL"},
      {"measurement": "time post administration of peak serum concentration", "setting": "[2]; Group 2, oral gavage 3 mg/kg", "result": "around 2 hours"},
      {"measurement": "clearance", "setting": "[2]; cat, serum, Group 1, intravenous 0.75 mg/kg, read-out: clearance of capromorelin", "result": "~30", "unit": "mL/min/kg"},
      {"measurement": "half-life", "setting": "[2]; cat, serum, Group 1, intravenous 0.75 mg/kg, read-out: terminal half-life of capromorelin (converted)", "result": "~54", "unit": "min"},
      {"measurement": "Cmax", "setting": "[2]; cat, serum, Group 2, oral gavage 3 mg/kg", "result": 149, "unit": "ng/mL"},
      {"measurement": "half-life", "setting": "[2]; cat, serum, Group 2, oral gavage 3 mg/kg, read-out: mean-terminal half-life (converted)", "result": 62.4, "unit": "min"}
    ]}
  ]
}
